From patent publication US4752614A, “Pharmaceutical compositions of tellerium and selenium compounds for the induction of in vivo and in vitro production of cytokines” (Bar-Ilan University, priority 1987, dated 1988)
Where “and” joins values, the source holds several entries; their conditions need not be identical. Identical values can stand only once.

Experiments:
IL-2 = IL-2 activity (CTLD proliferation) of Con A supernatants of spleen cells from mice injected IP (Example 3); format: in vivo, Balb-c mice
Procedure: A solution of the compound of Example 1 was prepared as follows: 5 mg was placed in a volumetric flask to which was added 100 ml of a solution of 40% dimethyl sulfoxide (DMSO) and 60% phosphate buffer saline (PBS) solution resulting in a concentration of 10 μg/0.2 ml. If the solution becomes turbid, it is centrifuged at 2000 rpm for ten minutes and the clear supernatant portion is used.
The test animals were Balb-c, male, mice, 6 to 8 weeks of age. All injections were made intraperitoneally using 0.2 ml of the solution of the compound of Example 1 using 25 gauge 5/8" hypodermic needle.
The animals received the following injections:
Each of groups a, b, c and d consisted of 21 animals. The animals were sacrificed daily from 24 h to 7 days after injection.
On each day, spleen cells from three of the animals from each control group were pooled together and processed by passing the spleen cells through a 60 mesh stainless steel net in a 5 mm Petri dish containing PBS in order to separate the cells. The cells were collected and centrifuged at 1000 rpm for 10 minutes. The supernatant was discarded and the cells were treated for two minutes with 5 ml of hypotonic buffer (0.15M NH4 Cl, 0.01M KHCO3 dissolved in double distilled water, pH 7.2) to kill the erythrocytes. Thereafter, PBS was added to the cells and the cells were centrifuged for 10 minutes at 1000 rpm. The cells were washed twice with PBS and counted in a haemocytometer using trypan blue to test for viability. The cells were brought to a concentration of 10^7 cells/ml using enriched RPMI containing 10% fetal calf serum (Ser Lab, Sussex, England); 5×10^-5 M 2-mercaptoethanol and 3% of d-glutamine (Bio Lab Israel) (stock solution 2m M×1000 nonessential amino acids) (Bio Lab, Israel) (stock solution×100) and sodium pyruvate (Bio Lab, Israel) (stock solution 1m M×100).
An additional three animals from each of the experimental groups were sacrificed and each of the spleens was processed separately using the same procedure.
The cell mixture was divided into two groups.
(a) Cells at a concentration of 10^7 cells/ml enriched RPMI to which was added concanavalin-A (CON A) (DiFCO, Batch 352) 2 μg./ml. These cells were incubated in 5 mm Petri dishes (NUNC) for 24 hours at 37° C., 7.5% CO2. Supernatants were collected, centrifuged at 1,600 rpm for 10 minutes and stored at 4° C. until used. These supernatants were assayed for IL-2 and CSF activity.
Prior to incubation of the cells, samples were removed from culture plates and smears of the cultures were made by cytocentrifugation. Slides were stained with May-Grunwald-Giemsa (1:10) solution and evaluated morphologically. A radioactive thymidine assay was used to determine IL-2 activity.
1. Supernatants were tested for IL-2 activity by the proliferation of the IL-2 dependent cell line CTLD. The IL-2 assay is based on the growth dependence of these cultured T-cell lines on IL-2. T cells harvested from IL-2 dependent culture, washed and placed back in culture in the absence of IL-2 invariably die within 24 hr. By using tritiated thymidine incorporation (^3 H-TdR) as an index of cultured T-cell replication, the IL-2 microassay provides a highly reproducible and quantitive indication of the amount of IL-2 activity in the supernatant prepared hereinabove.
2. To assay a condition medium for IL-2 activity, a sample containing 5×10^4 CTLD cells, 10% fetal calf serum and 50% of supernatant in question, all were suspended in a final volume of 1 ml RPMI. Aliquots of 0.2 ml from each sample were placed in four replicate wells of 96 microwell tissue culture plates (NUNC). Conditioned medium was obtained from cultures of Charles River rat spleen cells stimulated with Con A that contained a known amount of IL-2 as a reference in all assays.
3. The microwells were incubated for 24 hr at 37 degrees C. after which 1 microcurie/well of ^3 H-methylthymidine was added. […]

fibrosarcoma cells = test: Survival of mice with methylcholanthrene induced fibrosarcoma (Example 6); format: in vivo, Balb-c mice; set-up: mortality: concentration or dose not given beside the values
Procedure: A solution of 0.2% of methylcholanthrene (MCA, Sigma, USA) was prepared by dissolving 2 mg of the carcinogen in 1.0 ml of olive oil (Ref: Petra, et al., Cancer 19:302, 1961) with continuous shaking at 37° C. for 30 minutes. Six to eight week old C3 Heb mice were injected with 0.6 mg MCA/0.3 ml of solvent/mouse subcutaneously in the rear right thigh. After 21-30 days the induced tumor was surgically removed and pushed through 60 mesh stainless nets to obtain isolated cells. These cells were then further injected subcuteneously into the rear right thigh of C3 Heb mice 5 to 8 weeks of age, at a concentration of 10^6 cells/0.3 ml PBS/mouse/hypodermic needle 25 gauge, 5/8" to further induce tumor formation.
Balb-c mice, age 7 weeks were injected with methylcholanthrene to induce the formation of fibrosarcoma cells according to the procedure of Example 5. The test animals were divided into two groups.
(a) control (0.2 IP of 40% DMSO and 60% PBS)

WNV = WNV yield in mouse macrophage cultures (Example 23); format: cell-based, ICR mouse macrophage; details: 72 h; for Virus Yield: preliminary
Procedure: Varying amounts of the compound of Example 1 (5 μg, 1 μg, 0.1 μg) were incubated with a monolayer of mouse macrophages for 24 h. […] All cultures were then infected with 10^4 PFU/plate. After 72 h incubation the supernatants were collected and the virus was titrated against Vera cells.

Which IL-2 activity (IL-2; 1 μg IP, day 1, individual mouse) does the source give for Cl[TeH]1(Cl)(Cl)OCCO1 [Example 1] here?
Its IL-2 activity is 25,919 CPM and 34,326 CPM and 16,718 CPM.

And the IL-2 activity (IL-2; 1 μg IP, day 2, individual mouse)?
Its IL-2 activity is 21,398 CPM and 22,050 CPM and 9,338 CPM.

And the IL-2 activity (IL-2; 1 μg IP, day 3, individual mouse)?
The IL-2 activity was 10,130 CPM and 13,235 CPM and 2,176 CPM.

What about the IL-2 activity (IL-2; 1 μg IP, day 4, individual mouse) of the same molecule?
Its IL-2 activity is 31,999 CPM and 14,226 CPM and 17,228 CPM.

And the IL-2 activity (IL-2; 1 μg IP, day 6, individual mouse)?
Its IL-2 activity is 41,261 CPM and 80,314 CPM and 42,485 CPM.

And the IL-2 activity (IL-2; 1 μg IP, day 7, individual mouse)?
Its IL-2 activity is 66,854 CPM and 58,094 CPM and 51,268 CPM.

What about the IL-2 activity (IL-2; 10 μg IP, day 1, individual mouse) of the same molecule?
The IL-2 activity was 24,335 CPM and 21,193 CPM and 25,381 CPM.

And the IL-2 activity (IL-2; 10 μg IP, day 2, individual mouse)?
The IL-2 activity was 31,901 CPM and 36,390 CPM and 22,066 CPM.

And the IL-2 activity (IL-2; 10 μg IP, day 3, individual mouse)?
The IL-2 activity was 20,316 CPM and 18,288 CPM and 12,126 CPM.

And the IL-2 activity (IL-2; 10 μg IP, day 4, individual mouse)?
Its IL-2 activity is 26,644 CPM and 18,051 CPM and 65,963 CPM.

And the IL-2 activity (IL-2; 10 μg IP, day 6, individual mouse)?
Its IL-2 activity is 22,040 CPM and 74,043 CPM and 43,838 CPM.

What about the IL-2 activity (IL-2; 10 μg IP, day 7, individual mouse) of the same molecule?
The IL-2 activity was 85,216 CPM and 6,299 CPM.

What about the “% Survival” value (fibrosarcoma cells; 10 μg IP, day 4 after innoculation) of the same molecule?
Its value is 100%.

What about the “% Survival” value (fibrosarcoma cells; 10 μg IP, day 9) of the same molecule?
Its value is 100%.

And the “% Survival” value (fibrosarcoma cells; 10 μg IP, day 23)?
Its value is 100%.

What about the “% Survival” value (fibrosarcoma cells; 10 μg IP, day 30) of the same molecule?
Its value is 100%.

And the “% Survival” value (fibrosarcoma cells; 10 μg IP, day 37)?
The value was 100%.

What about the “% Survival” value (fibrosarcoma cells; day 39, start of increased dosage regimen) of the same molecule?
Its value is 100%.

What about the “% Survival” value (fibrosarcoma cells; day 41, increased dosage) of the same molecule?
Its value is 100%.

And the “% Survival” value (fibrosarcoma cells; day 43, increased dosage)?
Its value is 100%.

What about the “% Survival” value (fibrosarcoma cells; day 46, increased dosage) of the same molecule?
The value was 80%.

What about the “% Survival” value (fibrosarcoma cells; day 48, increased dosage) of the same molecule?
The value was 80%.

And the “% Survival” value (fibrosarcoma cells; day 50, increased dosage)?
The value was 80%.

And the “% Survival” value (fibrosarcoma cells; day 53, increased dosage)?
Its value is 60%.

What about the “% Survival” value (fibrosarcoma cells; day 60, increased dosage) of the same molecule?
Its value is 40%.

And the “% Survival” value (fibrosarcoma cells; day 67)?
The value was 20%.

And the “% Survival” value (fibrosarcoma cells; day 68)?
Its value is 0%.

And the mortality (fibrosarcoma cells; group (b), until just after the increased dosage regimen (day 39))?
Its mortality is 0%.

And the “reduction of virus yield” value (WNV; 0.1 μg)?
The value was “ten”.

And the “Virus Yield” value (WNV; 0.1 μg/plate)?
The value was 2 × 10^3 PFU/ml.

What about the “reduction of virus yield” value (WNV; 1 μg) of the same molecule?
Its value is 40 fold.

And the “Virus Yield” value (WNV; μg/plate (text: 1 μg))?
Its value is 5 × 10^2 PFU/ml.
